Among the test systems are BT-549 breast; HL-60(TB) leukemia; HOP-92 NSCLC; MCF7 breast; NCI-H23 lung; SK-MEL-5 melanoma; SR leukemia; SW-620 colon; U251 CNS.
Holding throughout (test): inhibition of tumour cell growth, NCI panel, 48 h

Each structure is given as a SMILES string.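 Cultured in 96-well plates, cells were exposed to test compound for 48 hours across five concentrations. GI50: concentration for 50% inhibition of growth. TGI: concentration producing complete growth inhibition.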

In the case of `NS(=O)(=O)c1nnc(NS(=O)(=O)c2ccc([N+](=O)[O-])cc2)s1`, the TGI in the test on BT-549 breast, with HL-60(TB) leukemia, with HOP-92 NSCLC, with MCF7 breast, with NCI-H23 lung and in the test with SK-MEL-5 melanoma was above 100 µM throughout. The TGI in the test with SR leukemia, in the test on SW-620 colon and in the test with U251 CNS was above 100 µM throughout.
With `COc1ccc(/C(Cl)=C(\C=O)c2ccc(Cl)cc2)cc1OC`, the TGI in the test on HL-60(TB) leukemia was 7.74 µM; with NCI-H23 lung, 8.36 µM; in the test on SK-MEL-5 melanoma, above 100 µM; in the test on SR leukemia it was 5.81 µM; with SW-620 colon, 15.4 µM; with U251 CNS it was 14.7 µM.
Turning to `C/C(O[Si](C(C)C)(C(C)C)C(C)C)=C(\C)C(=O)N(C)c1ccccc1Cl`, the TGI in the test on BT-549 breast, in the test on HOP-92 NSCLC, in the test with NCI-H23 lung, in the test with SK-MEL-5 melanoma, in the test on SW-620 colon and in the test with U251 CNS was above 100 µM in each case.
As to `CC12CCC(CC1(Cl)Cl)C2` (stereo not drawn), the TGI with BT-549 breast, in the test with HL-60(TB) leukemia, with HOP-92 NSCLC, in the test with MCF7 breast, in the test on NCI-H23 lung and in the test with SK-MEL-5 melanoma was above 100 µM each time. Further, the TGI in the test with SR leukemia, with SW-620 colon and in the test on U251 CNS was above 100 µM throughout.
`OC12c3ccccc3C1CCCCCC21OCCCO1` (stereo not drawn): the TGI in the test on HL-60(TB) leukemia, in the test with NCI-H23 lung, with SK-MEL-5 melanoma, with SW-620 colon and in the test with U251 CNS was above 100 µM in each case.
As for `O=[N+]([O-])C(C(Cl)=C(Cl)Cl)=C(n1cncn1)n1cncn1`, the TGI is 36 µM in the test with BT-549 breast; above 100 µM in the test on MCF7 breast; 54.2 µM in the test on NCI-H23 lung; 31.8 µM in the test with SK-MEL-5 melanoma; above 100 µM with SR leukemia; 43.1 µM with SW-620 colon. In addition, the TGI with U251 CNS is above 87.1 µM.
Regarding `CC[n+]1c(/C=C/c2ccc(N(CCCl)CCCl)cc2)ccc2cc(I)ccc21`, the TGI with HL-60(TB) leukemia was determined as 0.675 µM; in the test on HOP-92 NSCLC, 2.13 µM; in the test on NCI-H23 lung, 23.5 µM; in the test on SR leukemia it was 2.42 µM; in the test on SW-620 colon, 6.96 µM.
For `NC(N)=N/N=C/c1c(-c2cc([N+](=O)[O-])c(Cl)cc2Cl)nc2n1CCS2`, the TGI in the test on BT-549 breast was 9.7 µM; with HL-60(TB) leukemia, 41 µM; in the test with HOP-92 NSCLC, 61.6 µM; with NCI-H23 lung, 48.3 µM; with SK-MEL-5 melanoma, above 100 µM; in the test on SR leukemia, 3.43 µM. Further, the TGI with SW-620 colon and in the test on U251 CNS was above 100 µM each time.
As to `O=c1[nH]nc(-c2ccc(F)cc2)cc1-c1ccccc1`, the TGI with HL-60(TB) leukemia, with HOP-92 NSCLC, with MCF7 breast, in the test on NCI-H23 lung, with SK-MEL-5 melanoma and in the test on SR leukemia was above 100 µM throughout. In addition, the TGI with SW-620 colon and in the test with U251 CNS was above 100 µM in each case.
For `O=C(O)c1ccc(Nc2nc3nn(Cc4ccccc4)cc3c(=O)s2)cc1`, the TGI in the test with HL-60(TB) leukemia, in the test with HOP-92 NSCLC, with NCI-H23 lung, in the test on SK-MEL-5 melanoma, in the test on SR leukemia and in the test on SW-620 colon was above 100 µM in each case. The TGI in the test with U251 CNS is above 100 µM.
On to `COc1ccccc1C1C(C#N)=C(N)Oc2cc(O)ccc21` (stereo not drawn), for which the GI50 in the test on BT-549 breast was 24 µM; in the test on HL-60(TB) leukemia, 18.8 µM; in the test on HOP-92 NSCLC it was 4.77 µM; in the test on MCF7 breast it was 17.7 µM; in the test with NCI-H23 lung, 17.6 µM; with SK-MEL-5 melanoma it was 22.4 µM. Besides, the GI50 with SR leukemia is 3.48 µM; with SW-620 colon, 29.1 µM; with U251 CNS, 19.8 µM. Moreover, the TGI was 80.4 µM with BT-549 breast; above 100 µM with HL-60(TB) leukemia; 33.7 µM with HOP-92 NSCLC; 49.7 µM with MCF7 breast; 49.4 µM with NCI-H23 lung; 71.9 µM in the test on SK-MEL-5 melanoma. Also, the results for the TGI in the test on SR leukemia, in the test with SW-620 colon and with U251 CNS were 21.1 µM, above 100 µM and 62.6 µM, respectively.
Turning to `O/N=C\C(=Nc1ccc(Cc2ccc(N=C(/C=N\O)NO)cc2)cc1)NO`, the TGI in the test with HL-60(TB) leukemia is 66.5 µM; in the test with HOP-92 NSCLC, above 100 µM; in the test with NCI-H23 lung it was above 100 µM; in the test on SK-MEL-5 melanoma, above 100 µM; in the test on SW-620 colon it was above 100 µM; in the test on U251 CNS it was above 100 µM.
On to `C=CCn1c(=N)/c(=C(\N)O)s/c1=C1/SC(=S)N(c2ccc(C)cc2)C1=O`, for which the TGI with HL-60(TB) leukemia, in the test on HOP-92 NSCLC, in the test on NCI-H23 lung, with SK-MEL-5 melanoma, with SR leukemia and with SW-620 colon was above 100 µM throughout. Also, the TGI in the test on U251 CNS is above 100 µM.
`O=C(c1ccco1)N(C(=S)N1CCN(c2ccccn2)CC1)c1ccccc1`: the TGI with HL-60(TB) leukemia, in the test on HOP-92 NSCLC, in the test on NCI-H23 lung, with SK-MEL-5 melanoma, in the test with SR leukemia and in the test on SW-620 colon was above 100 µM throughout. In the test on U251 CNS, the TGI was above 100 µM.

The record behind these values is PubChem BioAssay (NCI).
